Measurements reported in patent publication US20020016468A1 (published 2002).

Compound `NC(=S)c1nn(-c2c(Cl)cc(C(F)(F)F)cc2Cl)c(N)c1SC(F)(F)F` has a melting point of 182 °C. In the case of `C[S+]([O-])c1c(C(N)=S)nn(-c2c(Cl)cc(C(F)(F)F)cc2Br)c1N` (stereo not shown), the melting point is reported as 188.5 °C. In the case of `C[S+]([O-])c1c(C(N)=S)nn(-c2c(Cl)cc(C(F)(F)F)cc2Cl)c1N` (stereo not shown), the melting point is reported as 192 °C. `CC[S+]([O-])c1c(C(N)=S)nn(-c2c(Cl)cc(C(F)(F)F)cc2Br)c1N` (stereo not shown) gave a melting point of 113.5 °C. For `CC[S+]([O-])c1c(C(N)=S)nn(-c2c(Cl)cc(C(F)(F)F)cc2Cl)c1N` (stereo not shown), the melting point was 167 °C. Compound `CSc1c(C(N)=S)nn(-c2c(Cl)cc(C(F)(F)F)cc2Cl)c1N` has a melting point of 161 °C. For `CC[S+]([O-])c1c(C(N)=S)nn(-c2c(Cl)cc(OC(F)(F)F)cc2Cl)c1N` (stereo not shown), the melting point was 102 °C. Compound `C[S+]([O-])c1c(C(N)=S)nn(-c2ccc(C(F)(F)F)cc2Cl)c1N` (stereo not shown) has a melting point of 153.5 °C. In the case of `CS(=O)(=O)c1c(C(N)=S)nn(-c2c(Cl)cc(C(F)(F)F)cc2Cl)c1N`, the melting point is reported as 231 °C. `C[S+]([O-])c1c(C(N)=S)nn(-c2c(Cl)cc(OC(F)(F)F)cc2Cl)c1N` (stereo not shown) gave a melting point of 137 °C.
